In ChEMBL document CHEMBL1142399, “Water-soluble pleuromutilin derivative with excellent in vitro and in vivo antibacterial activity against gram-positive pathogens” (J Med Chem, 2008):
In brackets after ≈: the same amount, converted by molar mass.

What was measured:
Streptococcus pneumoniae [1] = assay: microbe, parasite or virus in culture
Staphylococcus aureus [2] = assay: microbe, parasite or virus in culture; conditions: Smith
Staphylococcus aureus [3] = assay: Antibacterial activity against methicillin-resistant Staphylococcus aureus KT0116 in mouse dosed iv 1 hr after infection; format: functional
Haemophilus influenzae = assay: Antibacterial activity against Haemophilus influenzae TH13 by broth microdilution method; format: functional
Staphylococcus aureus [4] = assay: microbe, parasite or virus in culture
Enterococcus faecium [5] = assay: microbe, parasite or virus in culture; conditions: ATCC 19434
Staphylococcus aureus [6] = assay: microbe, parasite or virus in culture; conditions: KMP9
[7] = system: Staphylococcus epidermidis; assay: Antibacterial activity against Staphylococcus epidermidis ATCC 12228 by broth microdilution method; format: functional
Enterococcus faecalis = assay: microbe, parasite or virus in culture; conditions: ATCC 29212
Streptococcus pneumoniae [8] = assay: Antibacterial activity against penicillin-resistant Streptococcus pneumoniae KT2524 in mouse dosed iv 1 hr after infection; format: functional
Enterococcus faecium [9] = assay: Antibacterial activity against vancomycin-resistant Enterococcus faecium KU1778 clinical isolate by broth microdilution method; format: functional
Moraxella catarrhalis = assay: Antibacterial activity against Moraxella catarrhalis K1209 by broth microdilution method; format: functional
Staphylococcus aureus [10] = assay: Antibacterial activity against methicillin-susceptible Staphylococcus aureus Smith in mouse dosed iv 1 hr after infection; format: functional
Staphylococcus aureus [11] = assay: microbe, parasite or virus in culture; remark: listed apart in the source
Streptococcus pneumoniae [12] = assay: microbe, parasite or virus in culture; conditions: ATCC 49619
Streptococcus pyogenes = assay: Antibacterial activity against Streptococcus pyogenes ATCC 12344 by broth microdilution method; format: functional
Streptococcus pneumoniae [13] = assay: Antibacterial activity against penicillin-susceptible Streptococcus pneumoniae ATCC 49619 in mouse dosed iv 1 hr after infection; format: functional; conditions: ATCC 49619, iv
Cutibacterium acnes = assay: Antibacterial activity against Propionibacterium acnes GAI 5568 by broth microdilution method; format: functional
Clostridium perfringens = assay: Antibacterial activity against Clostridium perfringens GAI 5526 by broth microdilution method; format: functional
[14] = system: Staphylococcus saccharolyticus; assay: Antibacterial activity against Staphylococcus saccharolyticus GAI 5520 by broth microdilution method; format: functional
[15] = system: Propionibacterium granulosum; assay: Antibacterial activity against Propionibacterium granulosum GAI 7414 by broth microdilution method; format: functional; conditions: Cutibacterium granulosum
[16] = system: Peptostreptococcus anaerobius; assay: Antibacterial activity against Peptostreptococcus anaerobius GAI 5506 by broth microdilution method; format: functional
[17] = system: Streptococcus intermedius; assay: Antibacterial activity against Streptococcus intermedius GAI 7416 by broth microdilution method; format: functional
Finegoldia magna = assay: Antibacterial activity against Peptostreptococcus magnus GAI 5528 by broth microdilution method; format: functional
Atopobium parvulum = assay: Antibacterial activity against Atopobium parvulum GAI 5542 by broth microdilution method; format: functional; conditions: Lancefieldella parvula
[18] = system: Peptoniphilus asaccharolyticus; assay: Antibacterial activity against Peptostreptococcus asaccharolyticus GAI 5534 by broth microdilution method; format: functional
[19] = system: Mycoplasmoides pneumoniae; assay: Antibacterial activity against Mycoplasma pneumoniae Mac by broth microdilution method; format: functional
[20] = system: Mycoplasmoides pneumoniae; assay: Antibacterial activity against Mycoplasma pneumoniae FH Liu by broth microdilution method; format: functional
Streptococcus pneumoniae [21] = assay: Antibacterial activity against penicillin-susceptible Streptococcus pneumoniae ATCC 49619 in mouse dosed twice iv 1 hr and 4 hrs after infection; format: functional; conditions: ATCC 49619, iv
Streptococcus pneumoniae [22] = assay: Antibacterial activity against penicillin-susceptible Streptococcus pneumoniae ATCC 6303 in mouse pulmonary infection model assessed as survival at 6.25 mg/kg, ip twice daily for 3 days; format: functional; conditions: route intraperitoneal
[23] = Solubility in water; format: physicochemical
Streptococcus pneumoniae [24] = assay: Antibacterial activity against penicillin-resistant Streptococcus pneumoniae KT2524 in mouse dosed twice iv 1 hr and 4 hrs after infection; format: functional
Staphylococcus aureus [25] = assay: Antibacterial activity against methicillin-resistant Staphylococcus aureus KT0116 in mouse dosed twice iv 1 hr and 4 hrs after infection; format: functional
Staphylococcus aureus [26] = assay: Antibacterial activity against methicillin-susceptible Staphylococcus aureus Smith in po dosed mouse twice daily; format: functional
Staphylococcus aureus [27] = assay: Antibacterial activity against methicillin-susceptible Staphylococcus aureus Smith in mouse dosed twice iv 1 hr and 4 hrs after infection; format: functional

SMILES | MIC (Staphylococcus aureus [2]) | ED50 (Staphylococcus aureus [3]) | MIC (Haemophilus influenzae) | MIC (Staphylococcus aureus [4]) | MIC (Enterococcus faecium [5]) | MIC (Staphylococcus aureus [6]) | MIC [7] | MIC (Enterococcus faecalis) | ED50 (Streptococcus pneumoniae [8]) | MIC (Enterococcus faecium [9]) | MIC (Moraxella catarrhalis) | MIC (Cutibacterium acnes) | MIC (Clostridium perfringens) | MIC [14] | MIC [15] | MIC [16] | MIC [17] | MIC (Finegoldia magna) | MIC (Atopobium parvulum) | MIC [18] | other results
CO/N=C(\C(=O)N[C@@H]1C(=O)N2C(C(=O)O)=C(CSc3nc(=O)c(O)nn3C)CS[C@H]12)c1csc(N)n1 [CEFTRIAXONE] | 2 µg/mL (≈ 3.61 µM) | > 100 mg/kg | 0.008 µg/mL (≈ 0.0144 µM) | 2 µg/mL (≈ 3.61 µM) | 4 µg/mL (≈ 7.21 µM) | > 128 µg/mL | 2 µg/mL (≈ 3.61 µM) | 4 µg/mL (≈ 7.21 µM) | 27.5 mg/kg | > 128 µg/mL | 0.25 µg/mL (≈ 0.451 µM) | – | – | – | – | – | – | – | – | – | MIC (Streptococcus pneumoniae [1]): 0.5 µg/mL (≈ 0.902 µM); ED50 (Staphylococcus aureus [10]): 3.72 mg/kg; MIC (Staphylococcus aureus [11]): > 128 µg/mL; MIC (Streptococcus pneumoniae [12]): 0.063 µg/mL (≈ 0.114 µM); MIC (Streptococcus pyogenes): 0.016 µg/mL (≈ 0.0289 µM); ED50 (Streptococcus pneumoniae [13]): 0.22 mg/kg
CC1(C)S[C@@H]2[C@H](NC(=O)[C@H](N)c3ccccc3)C(=O)N2[C@H]1C(=O)O [AMPICILLIN] | – | – | – | – | – | – | – | – | – | – | – | 0.125 µg/mL (≈ 0.358 µM) | 0.063 µg/mL (≈ 0.18 µM) | 0.008 µg/mL (≈ 0.0229 µM) | 0.063 µg/mL (≈ 0.18 µM) | 0.125 µg/mL (≈ 0.358 µM) | 0.125 µg/mL (≈ 0.358 µM) | 0.25 µg/mL (≈ 0.715 µM) | 0.125 µg/mL (≈ 0.358 µM) | 0.25 µg/mL (≈ 0.715 µM) | –
CC[C@H]1OC(=O)[C@H](C)[C@@H](O[C@H]2C[C@@](C)(OC)[C@@H](O)[C@H](C)O2)[C@H](C)[C@@H](O[C@@H]2O[C@H](C)C[C@H](N(C)C)[C@H]2O)[C@](C)(OC)C[C@@H](C)C(=O)[C@H](C)[C@@H](O)[C@]1(C)O [CLARITHROMYCIN] | – | – | – | – | – | – | – | – | – | – | – | < 0.004 µg/mL | 1 µg/mL (≈ 1.34 µM) | 0.063 µg/mL (≈ 0.0842 µM) | < 0.004 µg/mL | < 0.004 µg/mL | < 0.004 µg/mL | 2 µg/mL (≈ 2.67 µM) | < 0.004 µg/mL | > 128 µg/mL | MIC [19]: 0.016 µg/mL (≈ 0.0214 µM); MIC [20]: 0.016 µg/mL (≈ 0.0214 µM)
C[C@H]1COc2c(N3CCN(C)CC3)c(F)cc3c(=O)c(C(=O)O)cn1c23.C[C@H]1COc2c(N3CCN(C)CC3)c(F)cc3c(=O)c(C(=O)O)cn1c23.O [LEVOFLOXACIN] | 0.125 µg/mL | > 100 mg/kg | 0.032 µg/mL | 0.125 µg/mL | 4 µg/mL | > 128 µg/mL | 0.25 µg/mL | 0.5 µg/mL | > 100 mg/kg | 64 µg/mL | 0.063 µg/mL | 0.25 µg/mL | 0.25 µg/mL | 0.125 µg/mL | 0.25 µg/mL | 0.125 µg/mL | 0.5 µg/mL | 0.125 µg/mL | 0.25 µg/mL | 2 µg/mL | MIC [19]: 0.063 µg/mL; MIC [20]: 0.125 µg/mL; ED50 (Staphylococcus aureus [10]): 0.78 mg/kg; MIC (Staphylococcus aureus [11]): > 128 µg/mL; MIC (Streptococcus pyogenes): 0.5 µg/mL; ED50 (Streptococcus pneumoniae [13]): 24.7 mg/kg
C=C[C@]1(C)C[C@@H](OC(=O)CSC2CCN(C(=O)CCn3cnc4c(N5CCNCC5)nc(N)nc43)CC2)[C@@]2(C)C3C(=O)CC[C@@]3(CC[C@H]2C)[C@@H](C)[C@@H]1O (stereo partly drawn) | 0.25 µg/mL (≈ 0.333 µM) | 2.15 mg/kg | 0.125 µg/mL (≈ 0.166 µM) | 0.063 µg/mL (≈ 0.0839 µM) | 0.063 µg/mL (≈ 0.0839 µM) | 0.5 µg/mL (≈ 0.666 µM) | 0.063 µg/mL (≈ 0.0839 µM) | 64 µg/mL (≈ 85.2 µM) | 1.55 mg/kg | 0.063 µg/mL (≈ 0.0839 µM) | 0.032 µg/mL (≈ 0.0426 µM) | 0.008 µg/mL (≈ 0.0107 µM) | 0.063 µg/mL (≈ 0.0839 µM) | 0.06 µg/mL (≈ 0.0799 µM) | 0.016 µg/mL (≈ 0.0213 µM) | 0.032 µg/mL (≈ 0.0426 µM) | 0.25 µg/mL (≈ 0.333 µM) | 0.063 µg/mL (≈ 0.0839 µM) | 0.25 µg/mL (≈ 0.333 µM) | 0.032 µg/mL (≈ 0.0426 µM) | MIC (Streptococcus pneumoniae [1]): 0.063 µg/mL (≈ 0.0839 µM); MIC [19]: 0.008 µg/mL (≈ 0.0107 µM); ED50 (Streptococcus pneumoniae [21]): 1.34 mg/kg; Activity (Streptococcus pneumoniae [22]): 50%; solubility [23]: 50 mg/mL (≈ 66600 µM); ED50 (Streptococcus pneumoniae [24]): 1.88 mg/kg; MIC [20]: 0.008 µg/mL (≈ 0.0107 µM); ED50 (Staphylococcus aureus [10]): 1.86 mg/kg; MIC (Staphylococcus aureus [11]): 0.5 µg/mL (≈ 0.666 µM); MIC (Streptococcus pneumoniae [12]): 0.063 µg/mL (≈ 0.0839 µM); MIC (Streptococcus pyogenes): 0.032 µg/mL (≈ 0.0426 µM); ED50 (Streptococcus pneumoniae [13]): 1.54 mg/kg; ED50 (Staphylococcus aureus [25]): 0.91 mg/kg; ED50 (Staphylococcus aureus [26]): > 50 mg/kg; ED50 (Staphylococcus aureus [27]): 1.51 mg/kg
